Source: US20230302036A1, “COMPOSITIONS FOR TREATMENT OF SPINAL MUSCULAR ATROPHY” (priority 2020, published 2023)
Oligonucleotides are written 5' to 3', each unit as a sugar letter and its base; * is a phosphorothioate linkage, no mark a phosphodiester; rarer units and linkages stand in square brackets, end groups in braces. Plain capitals give the bases only. e = 2'-O-(2-methoxyethyl) (MOE); [5mC] = 5-methylcytosine

Legend:
[1] = tested on: endogenous SMN2 E7 alternative splicing; test: SMN2 E7 alternative splicing by radioactive RT-PCR in HEK293T cells; assay type: cell-based, human; details: for effect of the drug on ASO1's effect on E7 inclusion: HEK293T transfected with 25 nM ASO1, increasing doses of TSA 24 hr; for effect of the drug on ASO1's effect on E7 inclusion / effect on SMN2 E7 inclusion, agent alone: 25 µM 5-AZA 48 hr; for effect on SMN2 E7 inclusion, agent alone: 25 nM ASO, 3 µM TSA 24 hr, 3 µM CPT
Protocol: Alternative splicing was analyzed by radioactive RT-PCR followed by native polyacrylamide gel electrophoresis and autoradiography. Bars display means ± SD of percentage of the radioactivity in the FL band over the sum of radioactivity measurements in the FL and ΔE7 bands of at least three independent transfection experiments. A two-tailed Student’s t test was used to determine the significance between events. (FIG. 1A) HEK293T cells were co-transfected with the SMN2 minigene and expression vectors for WT^res and hC4 Pol II, followed by addition of α-amanitin. (FIG. 1B) Effect of camptothecin (CPT) on SMN2 E7 alternative splicing. HEK293T cells were incubated for at least 6 hours with 3 µM CPT. Combined effects on endogenous SMN2 E7 alternative splicing of transfection with 25 nM ASO1 and treatment with 3 µM TSA for 24 hr (FIG. 1C), 10 mM VPA for 24 hr (FIG. 1D), or 25 µM 5-AZA for 48 hr (FIG. 1E). Combined effects on HEK293T endogenous SMN2 E7 alternative splicing of transfection with 25 nM each of si-hnRNPA1 and si-hnRNPA2, and treatment with 3 µM TSA for 24 hr (FIG. 1F) or 10 mM VPA for 24 hr (FIG. 1G). […]
HEK293T, HeLa, and SMA type I homozygous and carrier fibroblasts 3813 and 3814 (Coriell Cell Repositories, Camden, New Jersey, United States) were grown in Dulbecco’s modified Eagle’s medium (DMEM) containing 4.5 g of glucose and 10% fetal bovine serum (Gibco) at 37° C. Cells were plated at a density of 2×10^5 cells per well in 12-well plates 24 hr before transfection. siRNA (25 nM), plasmid (500 ng), or ASO (25 nM) transfections were performed 24 hr after cells were plated, using 3 µl of Lipofectamine 2000 (Thermo Fisher Scientific) per well in 12-well plates. 24-48 h later, cells were treated with Trichostatin A (Sigma, T8552), Valproic Acid (Sigma, P4543), 5-Azacytidine (Sigma, A2385) or vehicle for the indicated time, and harvested for downstream procedures. […]

[2] = tested on: endogenous SMN2 E7 alternative splicing in HeLa cells; test: SMN2 E7 alternative splicing by radioactive RT-PCR in HeLa cells; assay type: cell-based, human; details: 10 nM ASO1 and 3 µM TSA 24 hr
Protocol: (§1) Combined effects on endogenous SMN2 E7 alternative splicing in transfected (FIG. 5A) HEK293T cells with 25 nM ASO1 and increasing doses of TSA for 24 hr, (FIG. 5B) HeLa cells with 10 nM ASO1 and 3 µM TSA for 24 hr., and (FIG. 5C) SMA patient fibroblasts (3813) with 10 nM ASO1 and 3 µM TSA for 24 hr. Bars display means ± SD of percentage of the radioactivity in the FL band over the sum of radioactivity measurements in the FL and ΔE7 bands of at least three independent transfection experiments. (FIG. 5D and FIG. 5E) Transcriptional activation was assessed by RT-qPCR. (FIG. 5F) HEK293T cells with 3 nM ASO1 and 10 mM VPA for 24 hr. Bars indicate mean transcriptional activation ± SD ratios between precursors of SMN2 and GAPDH as the control gene. Statistical significance was analyzed by two-tailed Student’s t-tests. P < 0.05 was considered statistically significant.
(§2) HEK293T, HeLa, and SMA type I homozygous and carrier fibroblasts 3813 and 3814 (Coriell Cell Repositories, Camden, New Jersey, United States) were grown in Dulbecco’s modified Eagle’s medium (DMEM) containing 4.5 g of glucose and 10% fetal bovine serum (Gibco) at 37° C. […]

[3] = tested on: endogenous SMN2 E7 alternative splicing in SMA patient fibroblasts; test: SMN2 E7 alternative splicing by radioactive RT-PCR in SMA patient fibroblasts (3813); assay type: cell-based, human; details: 10 nM ASO1 and 3 µM TSA 24 hr
Protocol: as §1, §2

SMN2 pre-mRNA = test: Transcriptional activation by RT-qPCR of SMN2 pre-mRNA in HEK293T cells; assay type: cell-based, human; details: HDAC inhibitor alone
[4] = tested on: H3K9me2 along the SMN2 gene; test: ChIP-qPCR of H3K9me2 distribution along the SMN2 gene in HEK293T cells; assay type: cell-based, human; details: HEK293T; ASO transfection or 10 mM VPA
Protocol: (§3) H3K9me2 (FIG. 2B), total RNAPII (FIG. 2C), P-Ser5 RNAPII (FIG. 2D), and P-Ser2 RNAPII (FIG. 2E) distribution along the SMN2 gene, assessed by ChIP-qPCR in HEK293T cells transfected with the scramble oligo (CTRL) or ASO1 and treated with 10 mM VPA. Four independent immunoprecipitation replicates were conducted per experiment. Data are represented as mean ± S.D. (n = 4, *p < 0.05, two-tailed Student’s t test).
(§4) Total distribution of H3K9me2 (FIG. 3C), total RNAPII (FIG. 3D), P-Ser5 RNAPII (FIG. 3E), and P-Ser2 RNAPII (FIG. 3F) along the SMN2 gene is shown. This distribution was assessed by ChIP-qPCR in HEK293T cells transfected with the scramble oligo (CTRL) or ASO2 and treated with 10 mM VPA. Four independent immunoprecipitation replicates were conducted per experiment. Data are represented as mean ± S.D. (n = 4, *p < 0.05, two-tailed Student’s t test).
Approximately 2×10^6 HEK293T cells per sample were treated for 10 min in 1% (v/v) formaldehyde at room temperature to crosslink protein-DNA complexes. Crosslinking was stopped with glycine at a final concentration of 125 mM. Cells were washed twice with cold PBS and swelled on ice for 10 min in 25 mM HEPES pH 8, 1.5 mM MgCl2, 10 mM KCl, 0.1% NP-40, 1 mM DTT and 1× protease inhibitor cocktail set III (Calbiochem). Following Dounce homogenization, the nuclei were collected and resuspended in 1 ml sonication buffer (50 mM HEPES pH 8, 140 mM NaCl, 1 mM EDTA, 0.1% sodium deoxycholate, 0.1% SDS and 1× protease inhibitor cocktail). DNA was sonicated in an ultrasonic bath (Bioruptor Diagenode) to an average length of 200-500 bp. After addition of 1% (v/v) Triton X-100, samples were centrifuged at 15,000 ×g. Supernatants were immunoprecipitated O/N with 40 µl of pre-coated anti-IgG magnetic beads (Dynabeads M-280, Invitrogen) previously incubated with the antibody of interest for 6 hr at 4° C. The antibodies used were: rabbit anti-H3 (2 µg, Abcam ab1791), mouse anti-H3K9me2 (4 µg, Abcam ab1220), rabbit anti H3K9me3 (4 µg, Abcam ab8898), rabbit anti H3K9Ac (2 µg, Abcam ab4441), rabbit anti Rpb1 NTD (2 µg, Cell Signaling, D8L4Y), rabbit Phospho-Rpb1 CTD Ser2 (2 µg, Cell Signaling, E1Z3G), rabbit Phospho-Rpb1 CTD Ser5 (2 µg, Cell Signaling, D9N5I). Control immunoprecipitations were performed with rabbit IgG (1 µg, Abcam ab171870). […] Immunoprecipitated DNA (1.5 µl) and serial dilutions of the 10% input DNA (1:4, 1:20, 1: 100, and 1:500) were analyzed by SYBR-Green real-time qPCR.

[5] = tested on: RNAPII (total, P-Ser5, P-Ser2) along the SMN2 gene; test: ChIP-qPCR of RNAPII distribution along the SMN2 gene in HEK293T cells; assay type: cell-based, human; details: ASO transfection vs scramble
Protocol: as §3, §4
Approximately 2×10^6 HEK293T cells per sample were treated for 10 min in 1% (v/v) formaldehyde at room temperature to crosslink protein-DNA complexes. Crosslinking was stopped with glycine at a final concentration of 125 mM. Cells were washed twice with cold PBS and swelled on ice for 10 min in 25 mM HEPES pH 8, 1.5 mM MgCl2, 10 mM KCl, 0.1% NP-40, 1 mM DTT and 1× protease inhibitor cocktail set III (Calbiochem). Following Dounce homogenization, the nuclei were collected and resuspended in 1 ml sonication buffer (50 mM HEPES pH 8, 140 mM NaCl, 1 mM EDTA, 0.1% sodium deoxycholate, 0.1% SDS and 1× protease inhibitor cocktail). DNA was sonicated in an ultrasonic bath (Bioruptor Diagenode) to an average length of 200-500 bp. After addition of 1% (v/v) Triton X-100, samples were centrifuged at 15,000 ×g. Supernatants were immunoprecipitated O/N with 40 µl of pre-coated anti-IgG magnetic beads (Dynabeads M-280, Invitrogen) previously incubated with the antibody of interest for 6 hr at 4° C. The antibodies used were: rabbit anti-H3 (2 µg, Abcam ab1791), mouse anti-H3K9me2 (4 µg, Abcam ab1220), rabbit anti H3K9me3 (4 µg, Abcam ab8898), rabbit anti H3K9Ac (2 µg, Abcam ab4441), rabbit anti Rpb1 NTD (2 µg, Cell Signaling, D8L4Y), rabbit Phospho-Rpb1 CTD Ser2 (2 µg, Cell Signaling, E1Z3G), rabbit Phospho-Rpb1 CTD Ser5 (2 µg, Cell Signaling, D9N5I). Control immunoprecipitations were performed with rabbit IgG (1 µg, Abcam ab171870). Beads were washed sequentially for 5 min each in Low-salt (20 mM Tris-HCl pH 8, 150 mM NaCl, 2 mM EDTA, 1% Triton X-100, 0.1% SDS), High-Salt (20 mM Tris-HCl pH 8, 500 mM NaCl, 2 mM EDTA, 1% Triton X-100, 0.1% SDS) and LiCl buffer (10 mM Tris pH 8.0, 1 mM EDTA, 250 mM LiCl, 1% NP-40, 1% Na-deoxycholate) for 5 min at 4° C. and then twice in TE 1x for 2 min at room temperature. Beads were eluted in 1% SDS and 100 mM NaHCO3 buffer for 15 min at 65° C. and crosslinking was reversed for 6 hr after addition of NaCl to a final concentration of 200 mM. Chromatin was precipitated with ethanol overnight, treated with 20 µg proteinase K, and purified by phenol-chloroform extraction. Immunoprecipitated DNA (1.5 µl) and serial dilutions of the 10% input DNA (1:4, 1:20, 1: 100, and 1:500) were analyzed by SYBR-Green real-time qPCR.

[6] = tested on: H3K9me2 along SERF1A, MYOD, GAPDH; test: Specificity control ChIP-qPCR of H3K9me2 on SERF1A, MYOD and GAPDH in HEK293T cells; assay type: cell-based, human
Protocol: FIGS. 6A-6D show antisense oligonucleotides and their effects on chromatin. […] Uppercase, exonic nucleotide sequence. Lowercase, intronic sequences. Upstream highlight, binding site for ASO1. Downstream highlight, binding site for ASO2. Levels of H3K9me2 deposition along small EDRK-rich factor 1A (SERF1A, upstream of SMN2) (FIG. 6B), Myoblast Determination Protein (MYOD) (FIG. 6C), and Glyceraldehyde 3-phosphate dehydrogenase (GAPDH) (FIG. 6D), were assessed by ChIP-qPCR in HEK293T cells. Data represented as mean ± S.D. (n = 4, *p < 0.05, two-tailed Student’s t test).
Approximately 2×10^6 HEK293T cells per sample were treated for 10 min in 1% (v/v) formaldehyde at room temperature to crosslink protein-DNA complexes. Crosslinking was stopped with glycine at a final concentration of 125 mM. Cells were washed twice with cold PBS and swelled on ice for 10 min in 25 mM HEPES pH 8, 1.5 mM MgCl2, 10 mM KCl, 0.1% NP-40, 1 mM DTT and 1× protease inhibitor cocktail set III (Calbiochem). Following Dounce homogenization, the nuclei were collected and resuspended in 1 ml sonication buffer (50 mM HEPES pH 8, 140 mM NaCl, 1 mM EDTA, 0.1% sodium deoxycholate, 0.1% SDS and 1× protease inhibitor cocktail). […] Immunoprecipitated DNA (1.5 µl) and serial dilutions of the 10% input DNA (1:4, 1:20, 1: 100, and 1:500) were analyzed by SYBR-Green real-time qPCR.

SMN2 E7 = details: saturating doses; cited from earlier work

Nc1ncn([C@@H]2O[C@H](CO)[C@@H](O)[C@H]2O)c(=O)n1 [5-AZA, 5-aza cytidine]
effect of the drug on ASO1's effect on E7 inclusion [1]: enhanced the effects of ASO1 as effectively as the HDAC inhibitors
effect on SMN2 E7 inclusion, agent alone ([1]; HEK293T): no effect per se on E7 inclusion

CC[C@@]1(O)C(=O)OCc2c1cc1n(c2=O)Cc2cc3ccccc3nc2-1 [CPT, camptothecin]
effect on SMN2 E7 inclusion, agent alone ([1]; HEK293T): promoted E7 skipping

CC(/C=C/C(=O)NO)=C\[C@@H](C)C(=O)c1ccc(N(C)C)cc1 [TSA, trichostatin A]
effect of the drug on ASO1's effect on E7 inclusion [1]: dose-dependent
effect on SMN2 E7 inclusion, agent alone ([1]; HEK293T): less potent than ASO1 in upregulating E7 inclusion
effect of hnRNPA1/A2 depletion in promoting E7 inclusion upon HDAC inhibitor treatment ([1]; HEK293T, 25 nM each si-hnRNPA1 and si-hnRNPA2, no ASO1, 3 µM TSA or 10 mM VPA 24 hr): stronger
cooperative effect of TSA with ASO1 on E7 inclusion [2]: reproducible
cooperative effect of TSA with ASO1 on E7 inclusion [3]: reproducible
levels of SMN2 pre-mRNA (promoter-proximal amplicon) (SMN2 pre-mRNA): increased the levels of SMN2 pre-mRNA

ASO2: 5′-AAAGTATGTTTCTTCCACAC-3′ 2′-O-methoxyethyl phosphorothioate oligonucleotide; target in SMN2 intron 7 downstream of the ASO1 site (antisense eA*eA*eA*eG*eT*eA*eT*eG*eT*eT*eT*e[5mC]*eT*eT*e[5mC]*e[5mC]*eA*e[5mC]*eA*e[5mC])
inhibition of SMN2 E7 inclusion, ASO2 combined with CPT ([1]; HEK293T, 25 nM ASO2 in combination with 3 µM CPT 24 hr): stronger
effect on SMN2 E7 inclusion, agent alone ([1]; HEK293T): inhibited SMN2 E7 inclusion as efficiently as the elongation inhibitor CPT
H3K9me2 marks along the SMN2 gene [4]: promoted H3K9 methylation
P-Ser2 RNAPII density [5]: higher
P-Ser5 RNAPII density [5]: higher
total RNAPII density [5]: higher
H3K9 dimethylation in control genes (same TAD: SERF1A; outside TAD: MYOD, GAPDH) [6]: neither ASO1 nor ASO2 promoted H3K9 dimethylation

nusinersen: TCACTTTCATAATGCTGG; 2′-O-(2-methoxyethyl) phosphorothioate-modified antisense-oligonucleotide drug targeting a splicing silencer in SMN2 intron 7 (all 2'-MOE, all phosphorothioate, methylation of C not given here)
inclusion of SMN2 E7 (SMN2 E7): nearly full inclusion of SMN2 E7
